{"source": "ChEMBL document CHEMBL4028801", "about": "“A multifactorial approach to hepatobiliary transporter assessment enables improved therapeutic compound development” (Toxicol Sci, 2013)", "key": {"[1]": {"molecular_target": "ATP-binding cassette sub-family C member 2 (Homo sapiens, UniProt Q92887)", "sequence (Q92887 whole entry)": "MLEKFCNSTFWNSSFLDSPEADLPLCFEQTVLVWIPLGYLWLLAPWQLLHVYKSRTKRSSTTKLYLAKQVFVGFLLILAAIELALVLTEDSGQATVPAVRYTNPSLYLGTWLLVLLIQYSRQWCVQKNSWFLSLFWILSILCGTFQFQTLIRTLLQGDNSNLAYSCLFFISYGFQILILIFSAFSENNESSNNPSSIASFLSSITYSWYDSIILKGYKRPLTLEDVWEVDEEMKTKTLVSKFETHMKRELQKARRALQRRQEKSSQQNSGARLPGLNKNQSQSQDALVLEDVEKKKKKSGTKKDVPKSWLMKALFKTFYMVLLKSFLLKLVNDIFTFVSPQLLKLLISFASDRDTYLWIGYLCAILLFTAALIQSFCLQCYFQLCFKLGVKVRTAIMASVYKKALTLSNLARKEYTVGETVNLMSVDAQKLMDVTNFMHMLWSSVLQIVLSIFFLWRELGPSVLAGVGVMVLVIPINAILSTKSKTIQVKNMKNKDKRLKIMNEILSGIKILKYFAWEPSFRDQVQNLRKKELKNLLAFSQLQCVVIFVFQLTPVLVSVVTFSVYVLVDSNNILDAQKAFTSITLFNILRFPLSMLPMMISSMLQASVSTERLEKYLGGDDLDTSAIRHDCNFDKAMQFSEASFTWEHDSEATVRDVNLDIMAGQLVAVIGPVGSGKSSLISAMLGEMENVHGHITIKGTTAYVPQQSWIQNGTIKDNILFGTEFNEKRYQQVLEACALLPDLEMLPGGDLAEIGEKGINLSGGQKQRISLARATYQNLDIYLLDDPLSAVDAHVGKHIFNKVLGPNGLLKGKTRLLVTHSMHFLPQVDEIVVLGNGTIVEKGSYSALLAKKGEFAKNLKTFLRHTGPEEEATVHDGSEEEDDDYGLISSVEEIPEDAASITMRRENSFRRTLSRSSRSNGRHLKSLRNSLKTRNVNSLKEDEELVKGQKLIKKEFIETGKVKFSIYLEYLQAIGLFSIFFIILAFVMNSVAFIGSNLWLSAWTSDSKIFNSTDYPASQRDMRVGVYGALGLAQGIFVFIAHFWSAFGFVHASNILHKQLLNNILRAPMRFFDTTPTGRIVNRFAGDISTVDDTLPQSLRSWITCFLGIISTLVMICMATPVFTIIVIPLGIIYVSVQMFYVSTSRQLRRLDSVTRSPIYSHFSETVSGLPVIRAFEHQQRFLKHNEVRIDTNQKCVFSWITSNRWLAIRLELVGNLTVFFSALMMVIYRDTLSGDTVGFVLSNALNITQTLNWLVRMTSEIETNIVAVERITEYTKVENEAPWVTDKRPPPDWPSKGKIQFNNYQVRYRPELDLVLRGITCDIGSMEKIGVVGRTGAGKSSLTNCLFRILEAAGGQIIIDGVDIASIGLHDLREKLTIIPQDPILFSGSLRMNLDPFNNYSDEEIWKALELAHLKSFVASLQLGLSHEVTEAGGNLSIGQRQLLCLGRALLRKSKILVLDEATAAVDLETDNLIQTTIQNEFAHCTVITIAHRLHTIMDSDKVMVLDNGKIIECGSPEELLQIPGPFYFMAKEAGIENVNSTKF", "test": "Inhibition of human MRP2 overexpressed in Sf9 cell membrane vesicles assessed as uptake of [3H]-estradiol-17beta-D-glucuronide in presence of ATP and GSH measured after 20 mins by membrane vesicle transport assay"}, "[2]": {"test": "Drug concentration at steady state in human at 1250 mg, po QD after 24 hrs", "format": "ADME, organism-based", "details": "in vivo, read-out: Css"}, "[3]": {"test": "AUC in human at 1250 mg, po QD after 24 hrs", "format": "ADME, organism-based", "design": "time < 24 hr, dose 1250 mg, route oral", "details": "in vivo"}, "[4]": {"molecular_target": "ATP-binding cassette sub-family C member 3 (Homo sapiens, UniProt O15438)", "sequence (O15438 whole entry)": "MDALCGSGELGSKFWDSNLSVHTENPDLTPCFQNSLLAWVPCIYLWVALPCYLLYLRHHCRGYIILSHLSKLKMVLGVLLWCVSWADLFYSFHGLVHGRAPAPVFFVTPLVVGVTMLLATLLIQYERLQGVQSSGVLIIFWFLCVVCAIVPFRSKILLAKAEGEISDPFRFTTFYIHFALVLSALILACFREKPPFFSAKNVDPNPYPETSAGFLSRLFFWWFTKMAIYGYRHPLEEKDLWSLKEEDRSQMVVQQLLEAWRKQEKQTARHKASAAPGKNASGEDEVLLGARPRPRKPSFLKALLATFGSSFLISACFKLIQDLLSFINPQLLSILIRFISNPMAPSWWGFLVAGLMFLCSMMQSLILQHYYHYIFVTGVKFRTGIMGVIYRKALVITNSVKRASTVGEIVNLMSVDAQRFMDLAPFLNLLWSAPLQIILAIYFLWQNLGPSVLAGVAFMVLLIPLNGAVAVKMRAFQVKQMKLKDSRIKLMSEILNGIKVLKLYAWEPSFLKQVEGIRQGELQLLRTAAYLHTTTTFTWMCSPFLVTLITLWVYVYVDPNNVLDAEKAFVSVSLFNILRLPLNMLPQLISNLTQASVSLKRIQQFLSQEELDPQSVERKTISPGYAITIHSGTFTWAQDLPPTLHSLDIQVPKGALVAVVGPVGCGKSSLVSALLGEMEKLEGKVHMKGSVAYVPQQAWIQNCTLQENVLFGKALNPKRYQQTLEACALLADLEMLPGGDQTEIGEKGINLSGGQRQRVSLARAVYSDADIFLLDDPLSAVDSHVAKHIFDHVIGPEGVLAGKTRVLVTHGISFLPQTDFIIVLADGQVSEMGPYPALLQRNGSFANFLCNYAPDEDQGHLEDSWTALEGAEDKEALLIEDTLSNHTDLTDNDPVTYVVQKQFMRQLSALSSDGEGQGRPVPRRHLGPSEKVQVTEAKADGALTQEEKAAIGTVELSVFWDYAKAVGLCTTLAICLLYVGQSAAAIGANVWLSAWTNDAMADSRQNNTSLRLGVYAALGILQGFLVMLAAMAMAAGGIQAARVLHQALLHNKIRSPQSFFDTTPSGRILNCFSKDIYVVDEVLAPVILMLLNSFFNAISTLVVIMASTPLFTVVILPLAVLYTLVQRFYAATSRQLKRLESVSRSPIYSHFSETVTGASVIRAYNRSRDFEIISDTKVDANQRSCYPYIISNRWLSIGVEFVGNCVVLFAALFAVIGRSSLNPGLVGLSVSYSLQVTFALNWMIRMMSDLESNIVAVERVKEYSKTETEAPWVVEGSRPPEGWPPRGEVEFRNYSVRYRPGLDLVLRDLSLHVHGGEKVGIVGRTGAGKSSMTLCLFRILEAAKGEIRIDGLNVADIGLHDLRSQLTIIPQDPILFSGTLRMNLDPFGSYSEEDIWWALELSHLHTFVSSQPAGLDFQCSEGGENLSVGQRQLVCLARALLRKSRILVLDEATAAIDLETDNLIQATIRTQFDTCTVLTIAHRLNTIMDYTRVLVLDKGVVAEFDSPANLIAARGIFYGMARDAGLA", "test": "Inhibition of human MRP3 overexpressed in Sf9 insect cell membrane vesicles assessed as uptake of [3H]-estradiol-17beta-D-glucuronide in presence of ATP and GSH measured after 10 mins by membrane vesicle transport assay", "format": "ADME, cell-based"}, "[5]": {"molecular_target": "T1, ATP-binding cassette sub-family C member 4 (Homo sapiens, UniProt O15439)", "T1 sequence (O15439 whole entry)": "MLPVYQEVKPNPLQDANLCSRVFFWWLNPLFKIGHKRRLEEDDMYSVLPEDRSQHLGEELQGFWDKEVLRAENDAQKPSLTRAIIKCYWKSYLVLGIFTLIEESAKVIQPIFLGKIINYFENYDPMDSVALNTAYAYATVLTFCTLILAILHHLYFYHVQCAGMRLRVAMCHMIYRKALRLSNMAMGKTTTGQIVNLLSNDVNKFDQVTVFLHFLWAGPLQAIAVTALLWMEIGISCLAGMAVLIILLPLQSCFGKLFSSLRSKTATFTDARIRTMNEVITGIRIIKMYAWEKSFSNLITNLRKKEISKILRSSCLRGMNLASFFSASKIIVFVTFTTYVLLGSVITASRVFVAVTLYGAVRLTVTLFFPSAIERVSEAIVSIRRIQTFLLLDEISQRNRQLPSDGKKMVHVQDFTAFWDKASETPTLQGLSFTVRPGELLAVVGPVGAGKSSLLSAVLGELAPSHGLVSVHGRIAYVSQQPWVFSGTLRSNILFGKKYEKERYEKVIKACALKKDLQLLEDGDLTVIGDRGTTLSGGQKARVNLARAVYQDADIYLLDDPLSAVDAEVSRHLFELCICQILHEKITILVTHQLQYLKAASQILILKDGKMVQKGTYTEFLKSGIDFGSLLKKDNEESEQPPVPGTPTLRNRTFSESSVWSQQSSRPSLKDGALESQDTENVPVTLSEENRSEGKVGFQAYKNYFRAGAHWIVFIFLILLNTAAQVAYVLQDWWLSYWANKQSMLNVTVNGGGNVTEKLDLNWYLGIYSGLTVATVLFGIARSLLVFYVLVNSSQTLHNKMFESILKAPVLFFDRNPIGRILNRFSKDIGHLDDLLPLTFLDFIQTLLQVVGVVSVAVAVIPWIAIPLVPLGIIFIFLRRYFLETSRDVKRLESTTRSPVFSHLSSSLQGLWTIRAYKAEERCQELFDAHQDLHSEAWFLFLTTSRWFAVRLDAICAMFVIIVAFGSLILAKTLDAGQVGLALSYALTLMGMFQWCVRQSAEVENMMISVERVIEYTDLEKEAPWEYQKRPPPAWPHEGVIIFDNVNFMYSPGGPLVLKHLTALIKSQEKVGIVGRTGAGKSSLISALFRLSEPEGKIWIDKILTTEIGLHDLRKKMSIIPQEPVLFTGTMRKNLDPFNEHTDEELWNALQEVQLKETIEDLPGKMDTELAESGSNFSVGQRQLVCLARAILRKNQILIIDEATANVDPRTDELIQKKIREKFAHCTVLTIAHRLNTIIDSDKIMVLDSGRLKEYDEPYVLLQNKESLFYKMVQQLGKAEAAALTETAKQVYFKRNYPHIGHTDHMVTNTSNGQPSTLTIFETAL", "test": "Inhibition of human MRP4 overexpressed in Sf9 cell membrane vesicles assessed as uptake of [3H]-estradiol-17beta-D-glucuronide in presence of ATP and GSH measured after 20 mins by membrane vesicle transport assay", "format": "ADME, cell-based"}, "[6]": {"test": "Ratio of drug concentration at steady state in human at 1250 mg, po QD after 24 hrs to IC50 for human BSEP overexpressed in Sf9 insect cells", "format": "ADME, organism-based", "details": "in vivo"}, "[7]": {"test": "AUC in human at 2 g, po QD after 24 hrs", "format": "ADME, organism-based", "design": "dose 2 g, time < 24 hr, route oral", "details": "in vivo"}, "[8]": {"test": "Drug concentration at steady state in human at 2 g, po QD after 24 hrs", "format": "ADME, organism-based", "details": "in vivo, read-out: Css"}, "[9]": {"molecular_target": "Bile salt export pump (Homo sapiens, UniProt O95342)", "sequence (O95342 whole entry)": "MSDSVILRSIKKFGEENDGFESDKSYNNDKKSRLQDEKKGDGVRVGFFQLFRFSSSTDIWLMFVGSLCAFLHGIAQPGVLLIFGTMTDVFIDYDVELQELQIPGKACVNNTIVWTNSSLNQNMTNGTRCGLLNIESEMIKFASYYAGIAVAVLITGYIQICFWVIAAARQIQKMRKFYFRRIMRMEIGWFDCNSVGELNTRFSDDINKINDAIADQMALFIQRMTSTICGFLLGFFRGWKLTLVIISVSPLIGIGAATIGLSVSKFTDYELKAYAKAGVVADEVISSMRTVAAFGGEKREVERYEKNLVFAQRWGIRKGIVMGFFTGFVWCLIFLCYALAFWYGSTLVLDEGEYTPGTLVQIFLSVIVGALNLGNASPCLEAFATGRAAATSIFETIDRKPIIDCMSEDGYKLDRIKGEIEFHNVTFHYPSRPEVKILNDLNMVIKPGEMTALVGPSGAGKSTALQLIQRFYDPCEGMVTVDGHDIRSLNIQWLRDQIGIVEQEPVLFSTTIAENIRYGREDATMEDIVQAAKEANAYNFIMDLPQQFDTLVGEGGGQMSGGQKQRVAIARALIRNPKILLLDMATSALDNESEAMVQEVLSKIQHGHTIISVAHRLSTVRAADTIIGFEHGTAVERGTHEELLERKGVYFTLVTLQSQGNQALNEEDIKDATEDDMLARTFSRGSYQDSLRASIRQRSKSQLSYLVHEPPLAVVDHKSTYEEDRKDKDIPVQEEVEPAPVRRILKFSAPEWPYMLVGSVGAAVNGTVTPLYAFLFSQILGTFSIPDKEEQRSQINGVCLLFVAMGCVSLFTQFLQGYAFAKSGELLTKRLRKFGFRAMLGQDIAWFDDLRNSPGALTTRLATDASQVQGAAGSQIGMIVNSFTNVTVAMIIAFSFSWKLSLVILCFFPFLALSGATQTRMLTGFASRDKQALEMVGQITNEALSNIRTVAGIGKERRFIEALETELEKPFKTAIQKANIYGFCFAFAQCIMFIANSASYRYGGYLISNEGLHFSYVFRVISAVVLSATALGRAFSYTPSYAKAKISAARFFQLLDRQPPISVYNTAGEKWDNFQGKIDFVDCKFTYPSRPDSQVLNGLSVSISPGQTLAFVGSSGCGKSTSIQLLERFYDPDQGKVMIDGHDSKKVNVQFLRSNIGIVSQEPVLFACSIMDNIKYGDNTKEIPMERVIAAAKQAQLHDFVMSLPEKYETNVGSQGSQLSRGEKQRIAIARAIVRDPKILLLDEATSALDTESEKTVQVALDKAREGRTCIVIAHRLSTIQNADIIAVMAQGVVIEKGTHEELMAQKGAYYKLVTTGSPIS", "test": "Inhibition of human BSEP overexpressed in Sf9 cell membrane vesicles assessed as uptake of [3H]-taurocholate in presence of ATP measured after 15 to 20 mins by membrane vesicle transport assay", "format": "ADME, cell-based"}, "[10]": {"test": "Ratio of drug concentration at steady state in human at 2 g, po QD after 24 hrs to IC50 for human BSEP overexpressed in Sf9 insect cells", "format": "ADME, organism-based", "details": "in vivo"}, "[11]": {"test": "AUC in human at 125 to 500 mg, po QID after 6 hrs", "format": "ADME, organism-based", "details": "in vivo"}, "[12]": {"test": "Ratio of drug concentration at steady state in human at 125 to 500 mg, po QID after 6 hrs to IC50 for human BSEP overexpressed in Sf9 insect cells", "format": "ADME, organism-based", "details": "in vivo"}, "[13]": {"test": "Drug concentration at steady state in human at 125 to 500 mg, po QID after 6 hrs", "format": "ADME, organism-based", "details": "in vivo, read-out: Css"}, "[14]": {"test": "Drug concentration at steady state in human at 200 mg, po QD after 24 hrs", "format": "ADME, organism-based", "details": "in vivo, read-out: Css"}, "[15]": {"test": "AUC in human at 200 mg, po QD after 24 hrs", "format": "ADME, organism-based", "design": "time < 24 hr, dose 200 mg, route oral", "details": "in vivo"}, "[16]": {"test": "Ratio of drug concentration at steady state in human at 200 mg, po QD after 24 hrs to IC50 for human MRP4 overexpressed in Sf9 insect cells", "format": "ADME, organism-based", "details": "in vivo"}, "[17]": {"test": "Ratio of drug concentration at steady state in human at 200 mg, po QD after 24 hrs to IC50 for human BSEP overexpressed in Sf9 insect cells", "format": "ADME, organism-based", "details": "in vivo"}, "[18]": {"test": "Drug concentration at steady state in human at 400 to 800 mg, po QD used as formulation with ritonavir measured after 24 hrs", "format": "ADME, organism-based", "details": "in vivo, read-out: Css"}, "[19]": {"test": "Ratio of drug concentration at steady state in human at 400 to 800 mg, po QD used as formulation with ritonavir measured after 24 hrs to IC50 for human BSEP overexpressed in Sf9 insect cells", "format": "ADME, organism-based", "details": "in vivo"}, "[20]": {"test": "Ratio of drug concentration at steady state in human at 400 to 800 mg, po QD used as formulation with ritonavir measured after 24 hrs to IC50 for human MRP3 overexpressed in Sf9 insect cells", "format": "ADME, organism-based", "details": "in vivo"}, "[21]": {"test": "AUC in human at 400 to 800 mg, po QD used as formulation with ritonavir measured after 24 hrs", "format": "ADME, organism-based", "details": "in vivo"}, "[22]": {"test": "Ratio of drug concentration at steady state in human at 400 to 800 mg, po QD used as formulation with ritonavir measured after 24 hrs to IC50 for human MRP4 overexpressed in Sf9 insect cells", "format": "ADME, organism-based", "details": "in vivo"}}}
{"smiles": "CS(=O)(=O)CCNCc1ccc(-c2ccc3ncnc(Nc4ccc(OCc5cccc(F)c5)c(Cl)c4)c3c2)o1.Cc1ccc(S(=O)(=O)O)cc1", "values": [{"measurement": "IC50", "setting": "[1]", "result": "> 133", "unit": "µM"}, {"measurement": "concentration at 24 h", "setting": "[2]", "result": 2.6, "unit": "µM"}, {"measurement": "AUC at 24 h", "setting": "[3]", "result": 62.3, "unit": "µM·h"}, {"measurement": "IC50", "setting": "[4]", "result": "> 133", "unit": "µM"}, {"measurement": "IC50", "setting": "[5]", "result": "> 133", "unit": "µM"}, {"measurement": "Ratio", "setting": "[6]", "result": 0.4}]}
{"smiles": "CCOC(=O)C(C)(C)Oc1ccc(Cl)cc1", "note": "[CLOFIBRATE]", "values": [{"measurement": "IC50", "setting": "[1]", "result": "> 133", "unit": "µM"}, {"measurement": "AUC at 24 h", "setting": "[7]", "result": 649, "unit": "µM·h"}, {"measurement": "concentration at 24 h", "setting": "[8]", "result": 27.1, "unit": "µM"}, {"measurement": "IC50", "setting": "[9]", "result": 71, "unit": "µM"}, {"measurement": "IC50", "setting": "[4]", "result": "> 133", "unit": "µM"}, {"measurement": "Ratio", "setting": "[10]", "result": 0.381}, {"measurement": "IC50", "setting": "[5]", "result": "> 133", "unit": "µM"}]}
{"smiles": "Cc1onc(-c2c(Cl)cccc2Cl)c1C(=O)N[C@@H]1C(=O)N2[C@@H]1SC(C)(C)[C@@H]2C(=O)O", "note": "[DICLOXACILLIN]", "values": [{"measurement": "IC50", "setting": "[1]", "result": "> 133", "unit": "µM"}, {"measurement": "AUC at 6 h", "setting": "[11]", "result": 168, "unit": "µM·h"}, {"measurement": "Ratio", "setting": "[12]", "result": 0.498}, {"measurement": "IC50", "setting": "[9]", "result": 56.4, "unit": "µM"}, {"measurement": "IC50", "setting": "[4]", "result": "> 133", "unit": "µM"}, {"measurement": "concentration at 6 h", "setting": "[13]", "result": 28.1, "unit": "µM"}, {"measurement": "IC50", "setting": "[5]", "result": "> 133", "unit": "µM"}]}
{"smiles": "CC(=O)N1CCN(c2ccc(OCC3COC(Cn4ccnc4)(c4ccc(Cl)cc4Cl)O3)cc2)CC1", "note": "(stereo not given) [KETOCONAZOLE]", "values": [{"measurement": "IC50", "setting": "[1]", "result": "> 133", "unit": "µM"}, {"measurement": "concentration at 24 h", "setting": "[14]", "result": 1.29, "unit": "µM"}, {"measurement": "IC50", "setting": "[4]", "result": "> 133", "unit": "µM"}, {"measurement": "AUC at 24 h", "setting": "[15]", "result": 31.1, "unit": "µM·h"}, {"measurement": "Ratio", "setting": "[16]", "result": 0.019}, {"measurement": "IC50", "setting": "[5]", "result": 69, "unit": "µM"}, {"measurement": "Ratio", "setting": "[17]", "result": 0.381}]}
{"smiles": "Cc1cccc(C)c1OCC(=O)N[C@@H](Cc1ccccc1)[C@@H](O)C[C@H](Cc1ccccc1)NC(=O)[C@H](C(C)C)N1CCCNC1=O", "note": "[LOPINAVIR]", "values": [{"measurement": "IC50", "setting": "[1]", "result": "> 133", "unit": "µM"}, {"measurement": "concentration at 24 h", "setting": "[18]", "result": 6.6, "unit": "µM"}, {"measurement": "Ratio", "setting": "[19]", "result": 0.381}, {"measurement": "Ratio", "setting": "[20]", "result": 0.314}, {"measurement": "IC50", "setting": "[4]", "result": 21, "unit": "µM"}, {"measurement": "AUC at 24 h", "setting": "[21]", "result": 158, "unit": "µM·h"}, {"measurement": "Ratio", "setting": "[22]", "result": 0.14}, {"measurement": "IC50", "setting": "[5]", "result": 47, "unit": "µM"}]}
